Read-outs that look alike come from different tables or passages of the source. Ends that are not written are not given here.

Data on 8 compounds can be found in US7588906B2, “Hydrogels for biomolecule analysis and corresponding method to analyze biomolecules” (Wisconsin Alumni Research Foundation, priority 2004, dated 2009).

For series [1], the target named is T1, v-Abl tyrosine kinase (Abelson murine leukemia virus, UniProt P00521).
T1 sequence (P00521 1-746): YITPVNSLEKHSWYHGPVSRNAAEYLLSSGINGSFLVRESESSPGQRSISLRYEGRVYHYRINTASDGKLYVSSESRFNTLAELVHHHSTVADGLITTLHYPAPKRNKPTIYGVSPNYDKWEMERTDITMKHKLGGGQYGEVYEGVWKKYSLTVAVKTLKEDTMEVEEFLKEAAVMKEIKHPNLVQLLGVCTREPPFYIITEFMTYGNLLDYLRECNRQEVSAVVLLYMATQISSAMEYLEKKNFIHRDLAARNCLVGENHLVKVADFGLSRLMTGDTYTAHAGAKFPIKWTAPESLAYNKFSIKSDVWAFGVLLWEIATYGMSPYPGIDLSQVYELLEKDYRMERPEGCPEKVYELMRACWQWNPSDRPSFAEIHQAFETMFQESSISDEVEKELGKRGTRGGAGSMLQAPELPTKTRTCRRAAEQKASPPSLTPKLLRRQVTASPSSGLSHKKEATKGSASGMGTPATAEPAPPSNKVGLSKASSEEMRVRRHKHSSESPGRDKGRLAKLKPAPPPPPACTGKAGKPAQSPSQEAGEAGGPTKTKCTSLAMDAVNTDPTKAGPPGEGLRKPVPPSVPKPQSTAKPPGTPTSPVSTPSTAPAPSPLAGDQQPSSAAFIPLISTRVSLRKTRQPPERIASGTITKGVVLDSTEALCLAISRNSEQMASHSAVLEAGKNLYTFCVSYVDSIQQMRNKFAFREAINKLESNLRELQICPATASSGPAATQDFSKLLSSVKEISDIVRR
Kind of series: v-Abl phosphorylation of hydrogel-immobilized Abl peptide, MALDI mass spectrometry detection. In kind it is biochemical. Particulars: 3 hours, 30° C., estimated from MALDI spectrum FIG. 24B.
Text: The acrylic-labeled peptides were then incorporated into peptide-acrylamide copolymer hydrogels as described in the previous examples. Briefly recapping, individual peptide acrylamide copolymer hydrogel spots were attached to stainless steal MALDI target plates (16) (Applied Biosystems, Foster, Calif.) and acrylic-functionalized glass slides.
The peptide-acrylamide copolymer hydrogels were then subjected to enzyme-mediated phosphorylation reactions. Substrates containing peptide-acrylamide copolymer hydrogels were washed by sonication in approximately 20 ml of H2O for 10 mm and dried under compressed air. The substrates were then reconstituted in a v-Abl reaction mixture and incubated at 30° C. in a saturated environment for 3 hours. […] Following the phosphorylation reaction, the solid substrates were sonicated twice in approximately 20 ml of H2O for 10 mm and dried under compressed air.
After the phosphorylation reactions, the copolymer hydrogels were subjected to MALDI mass spectrometry analysis. Stainless steel MALDI target plates and glass slides containing peptide-acrylamide copolymer hydrogels were analyzed on an ABI Voyager 4700 MALDI-TOF/TOF mass spectrometer (Applied Biosystems). […] The samples were then analyzed in linear positive, linear negative, reflector positive, and reflector negative modes to detect the phosphorylated samples.

Series [2] has as its system Chronic Myeloid Leukemia (CML). Conditions: cited from earlier work.
In series [3] the target is T2, Bcr-Abl (K562 cell lysate) (Homo sapiens, UniProt P00519).
T2 construct: Source of Bcr-Abl tyrosine kinase: K562 cells (American Type Culture Collection, Manassas, Va.); endogenous in cells; host or cells: K562 cells (ATCC), clarified total cell lysate; the other entry of the earlier key: BCR (P11274, Breakpoint cluster region protein)
The series is described as follows: Array-based K562 cell lysate kinase assay on GST-Crkl substrates immobilized in polyacrylamide hydrogels, ECL phosphotyrosine detection. In kind it is biochemical. Conditions: for Inhibition of Bcr-Abl activity over the range studied / Inhibition of Bcr-Abl activity at 100 μM / Inhibition of Bcr-Abl activity at 1 mM: GST-Crkl (SH3), 2 h; for Inhibition of Bcr-Abl activity over the range studied: 100 nM to 1 mM inhibitor; for IC50: GST-Crkl (SH3) 165 ng/mm^2, 2 h, inhibitor 100 nM to 1 mM, read-out: IC50 for inhibition of Bcr-Abl activity, inhibitor screen; for Inhibition of Bcr-Abl activity at 100 μM: 100 μM inhibitor; for Inhibition of Bcr-Abl activity at 1 mM: 1 mM inhibitor. On the procedure:
Preparation of K562 and HL60 Cell Lysates: K562 and HL60 cells (ATCC, Manassas, Va.) were cultured at 37° C. and 5% CO2 in RPMI-1640 media (Cambrex Bio Science, Walkersville, Md.) containing 100 units/ml penicillin, 100 μg/ml streptomycin, and 10% FBS. For lysis, cells were resuspended at 5×10^7 cells/ml in lysis buffer (42.3 mM HEPES, 126 mM NaCl, 1.27 mM MgCl2, 0.85 mM EDTA, 84.5 mM NaF, 8.45 mM sodium pyrophosphate, 0.169 mM sodium orthovanadate, 1 mM PMSF, 0.95% Triton X-100, 9.5% glycerol, 4% 25× complete protease inhibitor, pH 7.4) and incubated on ice for 20 min. The total cell lysate was then clarified by spinning at 1500 rpm for 10 min. Total protein concentration was determined via a Pierce BCA protein assay kit (Pierce, Rockford, Ill.) and cell lysates were stored at −80° C. until further use.
Fabrication of Protein Arrays: Glass slides were acrylic-functionalized and GST-Crkl fusion proteins were acrylic-labeled as described in the previous Examples. Briefly, fusion proteins were labeled on primary amines by reaction with 6-((acrylo)amino) hexanoic acid, succinimidyl ester (Molecular Probes, Eugene, Oreg.) and clean glass slides were functionalized via reaction with (3-acryloxypropyl)-trimethoxysilane (Gelest, Tullytown, Pa.).
Following functionalization of the glass slides, a thin layer of 18.8% polyacrylamide gel was attached to the glass surface. Forty μl of a mixture containing 125 μl 1.5 M Tris, pH 8.8; 285 μl 33% acrylamide mix (0.86 g N,N′-methylenebisacrylamide (Bis) and 32.14 g acrylamide in a total volume of 100 ml); 5 μl 10% ammonium persulfate (APS); 75 μl 100% glycerol; 0.5 μl N,N,N′,N′-tetramethylethylenediamine (TEMED); and 9.5 μl water was sandwiched between an acrylic-functionalized glass slide and a clean glass plate and allowed to polymerize in a N2 environment at room temperature for 30 min. The glass plate was then removed and 1 μl protein spots were polymerized on top of the 18.8% acrylamide base layer from the following mixture: 6.25 μl 1.5 M Tris, pH 8.8; 3 μl 33% acrylamide mix; 0.5 μl 10% APS; 3.75 μl 100% glycerol; 0.1 μl TEMED; 0 to 7.5 μl acrylic-labeled GST-Crkl protein solution; and water to a total volume of 25 μl. Additionally, 3 μl spacer spots of the above mixture without protein were added on the exterior corners of the protein array for the subsequent creation of a reaction chamber as described below. After attachment of the protein-acrylamide copolymer spots the slides were washed by briefly dipping into approximately 250 ml of TBST (10 mM Tris-HCl, 100 mM NaCl, 0.1% Tween-20, pH 7.5) followed by a 15 minute and two 5 minute washes with slight agitation in approximately 20 ml of TBST. Slides were then washed by briefly dipping into approximately 250 ml of water followed by two 5 minute washes with slight agitation in approximately 20 ml of water, before being stored overnight at 4° C. in Abl kinase assay buffer (50 mM Tris-HCl, 10 mM MgCl2, 100 μM EDTA, 1 mM DTT, 0.015% Brij 35, 100 μg/ml BSA, pH 7.5).
Array-Based Kinase Assays: Just prior to the kinase assay, the glass slides were removed from the Abl kinase assay buffer and dried under a stream of compressed air. Careful attention was paid to make sure that only the bare portions of the slide were dried and the polyacrylamide spots and polyacrylamide base layer remained hydrated. Using the 3 μl spacer spots, a reaction chamber was then created by suspending a clean glass slide over top of the 1 μl protein-acrylamide copolymer hydrogel spots. […] Aliquots (250 μl) of these kinase reaction mixtures were then applied to each reaction chamber and the reactions allowed to proceed for 30 min to 5 h at 30° C. in a saturated environment. After the reaction, the glass slide used to create the reaction chamber was removed and the protein array was washed by briefly dipping into approximately 250 ml TBST followed by a 15 minute and two 5 minute washes with slight agitation in approximately 20 ml of TBST.

For series [4], the target named is T3, protein-tyrosine kinase p60c-src (Homo sapiens, UniProt P12931).
T3 construct: purchased Calbiochem, San Diego, Calif
Kind of series: Solution kinase assay, phosphorylation of GST-[…]. Particulars: solution reaction, Lineweaver-Burk plot. In kind it is biochemical. On the procedure:
Solution protein kinase assays with protein-tyrosine kinase p60^c-src (Calbiochem, San Diego, Calif.) were carried out according to the manufacture's instructions. Briefly, reaction mixtures containing 1.5 μl of 50% glycerol, 1.5 μl of ATP mix (0.15 mM ATP, 30 mM MgCl2), 0.3 units of p60^c-src in 1.5 μl kinase dilution buffer (50 mM HEPES, 0.1 mM EDTA, 0.015% Brij 35, 0.1 mg/ml BSA, 0.2% β-mercaptoethanol, pH 7.5), and 1 μl GST-[…] (SEQ. ID. NO: 1) solution (50 mM HEPES, 0.1 mM EDTA, 0.015% Brij 35, pH 7.5 containing anywhere from 0 to 600 ng of GST-[…]) were incubated at 37° C. for times ranging from 10 minutes to 5.5 hours. After each kinase reaction the samples were mixed with 94.5 μl of TBS (10 mM Tris-HCl, 100 mM NaCl, pH 7.5) containing 1% SDS and heated to 97° C. for 5 minutes. Upon cooling, the samples were transferred to a nitrocellulose membrane using a Dot Blot apparatus (Biorad, Hercules, Calif.) following the manufacture's instructions. Prior to assembly of the Dot Blot apparatus, the membrane was wetted in TBS for 10 minutes. The apparatus was then assembled and each well was washed twice with 100 μl of TBS. 50 μl of the kinase reaction product was applied to each well. After application of the reaction mixture the wells were washed twice with 200 μl of TBS containing 0.05% Tween-20. […]

In series [5] the target is T3, protein-tyrosine kinase p60c-src. Kind of series: Surface kinase assay, phosphorylation of hydrogel-immobilized GST-[…]. In kind it is biochemical. How it is done:
Surface protein kinase assays were carried out in a fashion similar to the solution kinase assays. Glass slides containing 0 to 600 ng of GST-[…] (SEQ. ID. NO: 1) per 1 μl polyacrylamide spot were prepared as above and stored overnight in kinase assay buffer (50 mM HEPES, 0.1 mM EDTA, 0.015% Brij 35, pH 7.5) at 4° C. Just prior to the kinase assay, these slides were dried under a stream of compressed air. […] The protein kinase reaction mixture containing 1.5 μl of 50% glycerol, 1.5 μl of ATP mix, and 0.3 units of p60^c-src in 1.5 μl of kinase dilution buffer was placed on top of each polyacrylamide spot and the slides were incubated in a humidity chamber at 37° C. for 10 minutes to 5.5 hours.
In the case of phosphotyrosine detection, a similar procedure was followed with the substitution of TBST for PBST as the buffer and BSA for milk as the blocking agent. These substitutions were required to reduce the nonspecific binding of the secondary antibody used in this detection scheme. […] The slides were then stored in TBST until detection.
In the case of the nitrocellulose membranes, 20 ml of ECL detection reagent was used per membrane.

T2 sequence (P00519 with tags, fused parts or gaps): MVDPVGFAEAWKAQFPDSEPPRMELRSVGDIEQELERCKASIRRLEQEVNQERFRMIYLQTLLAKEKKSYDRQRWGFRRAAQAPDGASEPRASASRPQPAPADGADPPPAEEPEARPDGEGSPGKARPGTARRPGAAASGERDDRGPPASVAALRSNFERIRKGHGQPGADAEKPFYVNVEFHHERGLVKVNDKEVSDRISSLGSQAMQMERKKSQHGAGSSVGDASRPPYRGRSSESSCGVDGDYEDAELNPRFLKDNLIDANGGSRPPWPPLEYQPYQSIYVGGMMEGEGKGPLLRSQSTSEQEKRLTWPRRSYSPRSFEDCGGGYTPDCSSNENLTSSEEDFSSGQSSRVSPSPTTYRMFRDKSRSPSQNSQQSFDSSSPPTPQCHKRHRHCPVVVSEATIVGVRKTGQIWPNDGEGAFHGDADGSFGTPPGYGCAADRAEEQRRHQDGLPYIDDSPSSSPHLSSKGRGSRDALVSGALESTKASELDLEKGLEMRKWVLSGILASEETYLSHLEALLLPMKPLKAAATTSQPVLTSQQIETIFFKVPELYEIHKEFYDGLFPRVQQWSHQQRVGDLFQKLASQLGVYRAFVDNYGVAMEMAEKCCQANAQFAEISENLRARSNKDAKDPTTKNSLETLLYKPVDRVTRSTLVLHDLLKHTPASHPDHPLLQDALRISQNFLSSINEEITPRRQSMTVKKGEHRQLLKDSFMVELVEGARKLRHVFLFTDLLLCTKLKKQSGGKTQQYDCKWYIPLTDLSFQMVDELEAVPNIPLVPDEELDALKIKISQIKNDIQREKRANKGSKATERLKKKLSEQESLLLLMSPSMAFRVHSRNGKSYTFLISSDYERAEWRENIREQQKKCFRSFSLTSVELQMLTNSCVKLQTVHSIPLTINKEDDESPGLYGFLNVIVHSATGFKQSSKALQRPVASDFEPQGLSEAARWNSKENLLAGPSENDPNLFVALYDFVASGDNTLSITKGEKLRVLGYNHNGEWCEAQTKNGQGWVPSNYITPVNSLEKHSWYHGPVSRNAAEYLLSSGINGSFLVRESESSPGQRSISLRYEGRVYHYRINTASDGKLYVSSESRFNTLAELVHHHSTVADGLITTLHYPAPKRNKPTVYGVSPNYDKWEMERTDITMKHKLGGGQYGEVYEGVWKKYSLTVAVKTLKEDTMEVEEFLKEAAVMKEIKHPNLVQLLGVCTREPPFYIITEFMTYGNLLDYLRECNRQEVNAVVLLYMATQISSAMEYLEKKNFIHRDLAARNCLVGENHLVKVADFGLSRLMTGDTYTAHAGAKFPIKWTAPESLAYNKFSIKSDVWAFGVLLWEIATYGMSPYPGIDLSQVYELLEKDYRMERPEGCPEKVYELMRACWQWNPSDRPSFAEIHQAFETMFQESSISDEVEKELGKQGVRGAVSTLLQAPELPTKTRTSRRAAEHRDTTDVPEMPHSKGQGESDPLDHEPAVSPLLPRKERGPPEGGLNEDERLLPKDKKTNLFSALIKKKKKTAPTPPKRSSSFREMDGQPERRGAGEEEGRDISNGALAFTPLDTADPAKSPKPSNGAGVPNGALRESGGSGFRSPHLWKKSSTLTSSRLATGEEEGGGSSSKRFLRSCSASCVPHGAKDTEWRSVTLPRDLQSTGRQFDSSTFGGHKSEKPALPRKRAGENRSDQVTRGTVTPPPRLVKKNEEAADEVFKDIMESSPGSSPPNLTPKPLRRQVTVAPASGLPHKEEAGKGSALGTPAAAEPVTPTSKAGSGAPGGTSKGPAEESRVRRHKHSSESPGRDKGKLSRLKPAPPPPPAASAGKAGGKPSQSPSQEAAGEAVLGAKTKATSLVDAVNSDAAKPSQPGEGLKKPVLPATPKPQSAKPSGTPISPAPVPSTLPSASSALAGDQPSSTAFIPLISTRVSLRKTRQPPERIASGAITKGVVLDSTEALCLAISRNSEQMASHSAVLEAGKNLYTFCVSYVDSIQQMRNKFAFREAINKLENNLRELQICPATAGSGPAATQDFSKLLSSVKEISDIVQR

In the case of H-EAIYAAPFAKKK-OH [Abl peptide], in series [1], the Extent of phosphorylation result is given as “approximately 90%”.

Turning to `Cc1ccc(NC(=O)c2ccc(CN3CCN(C)CC3)cc2)cc1Nc1nccc(-c2cccnc2)n1` [Glivec], in series [2] (CML patients), the Complete cytogenetic remission is 41 % of patients and the Side effects entry was “much milder side effects”.

Turning to `N#C/C(=C/c1ccc(O)c(O)c1)C(=O)NCc1ccccc1` [AG490], the “Inhibition of Bcr-Abl activity over the range studied” value in series [3] is “do not inhibit”.

A word on the IC50: it is the concentration that inhibits the measured activity by half. For the compound `COc1cc2ncnc(Nc3cccc(Cl)c3)c2cc1OC` [AG1478], in series [3], the IC50 was around 100 µM, the “Inhibition of Bcr-Abl activity at 100 μM” value was “Significant inhibition” and the “Inhibition of Bcr-Abl activity at 1 mM” value was “Significant inhibition”. Moreover, the “Inhibition of Bcr-Abl activity at 100 μM” value in series [3] (listed as AG 1478) is given as “slight inhibition”.

Regarding `COc1cc2ncc(-c3ccccc3)nc2cc1OC` [AG1296], in series [3], the “Inhibition of Bcr-Abl activity over the range studied” value is on record as “do not inhibit”.

Broadly, the Km is the substrate concentration at which the rate is half of its maximum. “GST-EEEIYGEFE: GST-peptide fusion (SEQ. ID. NO: 1) carrying the consensus sequence for c-Src tyrosine phosphorylation ({GST}-EEEIYGEFE)”: the “Vmax, phosphorylation by c-Src in solution” value in series [4] was determined as 8.1±3.1 arbitrary units. The Km in series [4] (read-out: Km, phosphorylation by c-Src in solution) came out at 2.7 ± 1 µM; in series [5] (surface reaction, polyacrylamide hydrogel spot, Lineweaver-Burk plot, read-out: Km, phosphorylation by c-Src of surface-immobilized substrate), 0.36 ± 0.033 µM. The “Vmax, phosphorylation by c-Src of surface-immobilized substrate” value in series [5] (surface reaction, polyacrylamide hydrogel spot, Lineweaver-Burk plot) stood at 9.7±0.63 arbitrary units. Also, the “Km of surface reaction lower than in solution” value in series [5] (surface vs. solution) is given as “approximately 10 fold”.

For `C[C@@H](Nc1ncnc2[nH]c(-c3ccc(O)cc3)cc12)c1ccccc1` [PKI166], in series [3], the IC50 is around 100 µM, the “Inhibition of Bcr-Abl activity at 100 μM” value is reported as “Significant inhibition” and the “Inhibition of Bcr-Abl activity at 1 mM” value is “Significant inhibition”. In series [3] (listed as PKI 166), the “Inhibition of Bcr-Abl activity at 100 μM” value was “slight inhibition”.

Consider α-interferon, for which, in series [2] (CML patients), the “Survival as compared to conventional chemotherapy” value is listed as “prolong survival by about a year”. Further, the Side effects result in series [2] (human, in vivo) is given as “significant side effects”.
